Consider two compounds from patent US20040087558A1, “Methods of using and compositions comprising selective cytokine inhibitory drugs for treatment, modification and management of pain” (priority 2002, published 2004).

The nature of data set [1]: Clinical study in pain patients with upper extremity CRPS. The format is in vivo, human. To be noted: 1,200 mg as a continuous oral daily dose. The protocol:
Selective cytokine inhibitory drugs of the invention such as 3-(3,4-dimethoxy-phenyl)-3-(1-oxo-1,3-dihydro-isoindol-2-yl)-propionamide are administered in an amount of 400 to 1,200 mg per day to patients with pain syndromes for three to six months. A baseline evaluation is performed for the effect of the drug treatment on pain intensity, impact of pain on activities of daily living, and consumption of other pain medications.
In a specific embodiment, clinical studies are performed in pain patients who have upper extremity CRPS that has not responded to conventional physical therapy and has been present for at least one year. In the early course of their diseases, patients have clear evidence of autonomic dysfunction with formal autonomic testing (Quantitative sudomotor axon reflex test (QSART), resting sweat output, and thermography). If this is unavailable, documentation of clinical signs indicates autonomic dysfunction (changes in hydration, temperature, skin, nail or hair growth) along with symptoms of allodynia and swelling. […] Responses are assessed using standard pain scales, e.g., Numeric Pain Scale Assessment (VAS) for pain, quality of life using the McGill Index and objective signs in clinical examination such as a visible reduction of swelling, sweating, discolorations in skin color, temperature changes, changes in skin, hair and nail growth, and fine motor movements. […]

The subject of a further data set is TNF-α production. In words: Inhibition of TNF-α production following LPS-stimulation of human PBMC and human whole blood. The format is cell-based. The note with it: in vitro studies; compared with thalidomide. The protocol: In a specific embodiment, the pharmacological properties of 3-(3,4-dimethoxy-phenyl)-3-(1-oxo-1,3-dihydro-isoindol-2-yl)-propionamide are characterized in in vitro studies. Studies examine the effects of the compound on the production of various cytokines. Inhibition of TNF-α production following LPS-stimulation of human PBMC and human whole blood by the compound is investigated in vitro. The IC50's of the compound for inhibiting production of TNF-α are measured. […] The pharmacological effects of 3-(3,4-dimethoxy-phenyl)-3-(1-oxo-1,3-dihydro-isoindol-2-yl)-propionamide may derive from its action as an inhibitor of the generation of inflammatory cytokines.

Data set [2] can be described thus: Cardiovascular and respiratory function in anesthetized dogs. The format is in vivo. The note with it: anesthetized Beagle dogs; ascending doses 400, 800 and 1,200 mg/kg/day by infusion through the jugular vein. On the procedure:
The effects of 3-(3,4-dimethoxy-phenyl)-3-(1-oxo-1,3-dihydro-isoindol-2-yl)-propionamide on cardiovascular and respiratory function are investigated in anesthetized dogs. Two groups of Beagle dogs (2/sex/group) are used. One group receives three doses of vehicle only and the other receives three ascending doses of 3-(3,4-dimethoxy-phenyl)-3-(1-oxo-1,3-dihydro-isoindol-2-yl)-propionamide (400, 800, and 1,200 mg/kg/day). In all cases, doses of 3-(3,4-dimethoxy-phenyl)-3-(1-oxo-1,3-dihydro-isoindol-2-yl)-propionamide or vehicle are successively administered via infusion through the jugular vein separated by intervals of at least 30 minutes.

The conditions of data set [3]: 8 to 10 mg/kg i.p.; acute pain assays; cited from earlier work.

For `COc1ccc(C(CC(N)=O)N2Cc3ccccc3C2=O)cc1OC` (stereo not shown) [3-(3,4-dimethoxy-phenyl)-3-(1-oxo-1,3-dihydro-isoindol-2-yl)-propionamide], the tolerability entry in data set [1] is on record as “well-tolerated”. Also, in the data set on TNF-α production, the “pharmacological activity profile, potency relative to thalidomide” value was “five to fifty”. Also, the “cardiovascular and respiratory changes compared to the vehicle control group” value in data set [2] is “minimal at all doses”.
Turning to `CN1CC[C@]23c4c5ccc(O)c4O[C@H]2[C@@H](O)C=C[C@H]3[C@H]1C5` [morphine], the anti-nociceptive response result in data set [3] is “near-maximal anti-nociceptive response”.
